Tests used:
[1] = target: 5-hydroxytryptamine receptor 2A (Homo sapiens) (UniProt P28223); conditions: Compound concentration 10.0 uM
[2] = target: Inhibitor of nuclear factor kappa-B kinase subunit alpha (Homo sapiens) (UniProt O15111); conditions: Compound concentration 1000.0 nM
[3] = target: Ephrin type-B receptor 3 (Homo sapiens) (UniProt P54753); conditions: Compound concentration 1000.0 nM
[4] = target: Mitogen-activated protein kinase kinase kinase kinase 2 (Homo sapiens) (UniProt Q12851); conditions: Compound concentration 1000.0 nM
[5] = target: Serine/threonine-protein kinase RIO1 (Homo sapiens) (UniProt Q9BRS2); conditions: Compound concentration 1000.0 nM
[6] = target: Cyclin-dependent kinase 8 (Homo sapiens) (UniProt P49336); conditions: Compound concentration 1000.0 nM
[7] = target: Muscle, skeletal receptor tyrosine-protein kinase (Homo sapiens) (UniProt O15146); conditions: Compound concentration 1000.0 nM
[8] = target: Homeodomain-interacting protein kinase 2 (Homo sapiens) (UniProt Q9H2X6); conditions: Compound concentration 1000.0 nM
[9] = tested on: Receptor-type tyrosine-protein kinase FLT3 (Homo sapiens), P36888 [UNDEFINED MUTATION]; conditions: Compound concentration 1000.0 nM
[10] = target: Calcium/calmodulin-dependent protein kinase type 1 (Homo sapiens) (UniProt Q14012); conditions: Compound concentration 1000.0 nM
[11] = target: Death-associated protein kinase 1 (Homo sapiens) (UniProt P53355); conditions: Compound concentration 1000.0 nM
[12] = target: T1, Muscarinic acetylcholine receptor M1 (Homo sapiens) (UniProt P11229); conditions: Compound concentration 10.0 uM
T1 sequence (whole entry): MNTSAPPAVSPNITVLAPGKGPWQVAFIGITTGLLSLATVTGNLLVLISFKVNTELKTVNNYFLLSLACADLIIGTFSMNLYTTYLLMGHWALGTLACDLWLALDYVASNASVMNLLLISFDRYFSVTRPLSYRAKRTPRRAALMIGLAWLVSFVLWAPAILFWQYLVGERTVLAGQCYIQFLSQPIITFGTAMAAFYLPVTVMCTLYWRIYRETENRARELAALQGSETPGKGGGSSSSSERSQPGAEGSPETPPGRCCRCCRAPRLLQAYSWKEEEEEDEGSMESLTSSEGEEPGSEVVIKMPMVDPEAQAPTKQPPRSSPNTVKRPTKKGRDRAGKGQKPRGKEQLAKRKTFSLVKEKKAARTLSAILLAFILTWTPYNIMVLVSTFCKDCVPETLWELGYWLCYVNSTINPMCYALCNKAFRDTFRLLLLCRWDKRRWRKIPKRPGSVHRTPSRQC

[13] = target: Leucine-rich repeat serine/threonine-protein kinase 2 (Homo sapiens) (UniProt Q5S007); conditions: Compound concentration 1000.0 nM
[14] = target: Histamine H3 receptor (Homo sapiens) (UniProt Q9Y5N1); conditions: Compound concentration 10.0 uM
[15] = target: Tyrosine-protein kinase Srms (Homo sapiens) (UniProt Q9H3Y6); conditions: Compound concentration 1000.0 nM
[16] = target: T2, Alpha-1D adrenergic receptor (Homo sapiens) (UniProt P25100); conditions: Compound concentration 10.0 uM
T2 sequence (whole entry): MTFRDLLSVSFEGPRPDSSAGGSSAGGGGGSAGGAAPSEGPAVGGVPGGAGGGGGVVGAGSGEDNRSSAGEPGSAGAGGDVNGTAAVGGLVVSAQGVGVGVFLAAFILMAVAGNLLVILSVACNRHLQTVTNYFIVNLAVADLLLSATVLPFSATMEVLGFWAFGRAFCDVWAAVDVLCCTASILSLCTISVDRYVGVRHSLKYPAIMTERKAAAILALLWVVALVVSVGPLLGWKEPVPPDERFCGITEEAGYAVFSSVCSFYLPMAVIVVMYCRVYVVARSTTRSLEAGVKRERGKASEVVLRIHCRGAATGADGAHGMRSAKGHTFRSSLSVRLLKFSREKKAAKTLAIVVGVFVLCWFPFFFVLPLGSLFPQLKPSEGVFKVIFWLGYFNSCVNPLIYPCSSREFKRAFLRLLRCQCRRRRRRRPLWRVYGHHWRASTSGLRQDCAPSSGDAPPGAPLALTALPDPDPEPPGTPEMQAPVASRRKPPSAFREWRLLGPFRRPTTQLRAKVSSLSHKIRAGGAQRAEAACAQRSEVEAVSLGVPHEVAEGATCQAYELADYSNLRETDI

[17] = target: Atypical kinase COQ8B, mitochondrial (Homo sapiens) (UniProt Q96D53); conditions: Compound concentration 1000.0 nM
[18] = target: Serine/threonine-protein kinase TAO2 (Homo sapiens) (UniProt Q9UL54); conditions: Compound concentration 1000.0 nM
[19] = target: Serine/threonine-protein kinase Nek9 (Homo sapiens) (UniProt Q8TD19); conditions: Compound concentration 1000.0 nM
[20] = target: Serine/threonine-protein kinase 17A (Homo sapiens) (UniProt Q9UEE5); conditions: Compound concentration 1000.0 nM
[21] = target: Ribosomal protein S6 kinase alpha-6 (Homo sapiens) (UniProt Q9UK32); conditions: Compound concentration 1000.0 nM
[22] = target: Phosphatidylinositol 5-phosphate 4-kinase type-2 gamma (Homo sapiens) (UniProt Q8TBX8); conditions: Compound concentration 1000.0 nM
[23] = target: Ephrin type-A receptor 6 (Homo sapiens) (UniProt Q9UF33); conditions: Compound concentration 1000.0 nM
[24] = target: RAC-gamma serine/threonine-protein kinase (Homo sapiens) (UniProt Q9Y243); conditions: Compound concentration 1000.0 nM
[25] = tested on: Tyrosine-protein kinase ABL1 (Homo sapiens), P00519 [E255K]; conditions: Compound concentration 1000.0 nM
[26] = target: Ephrin type-A receptor 1 (Homo sapiens) (UniProt P21709); conditions: Compound concentration 1000.0 nM
[27] = target: SRSF protein kinase 3 (Homo sapiens) (UniProt Q9UPE1); conditions: Compound concentration 1000.0 nM
[28] = target: Serine/threonine-protein kinase 16 (Homo sapiens) (UniProt O75716); conditions: Compound concentration 1000.0 nM
[29] = target: Cyclin-dependent kinase 14 (Homo sapiens) (UniProt O94921); conditions: Compound concentration 1000.0 nM
[30] = target: Inhibitor of nuclear factor kappa-B kinase subunit epsilon (Homo sapiens) (UniProt Q14164); conditions: Compound concentration 1000.0 nM
[31] = target: Casein kinase I isoform alpha (Homo sapiens) (UniProt P48729); conditions: Compound concentration 1000.0 nM

Chain of Cyclin-dependent kinase 8 (Homo sapiens) (P49336 whole entry): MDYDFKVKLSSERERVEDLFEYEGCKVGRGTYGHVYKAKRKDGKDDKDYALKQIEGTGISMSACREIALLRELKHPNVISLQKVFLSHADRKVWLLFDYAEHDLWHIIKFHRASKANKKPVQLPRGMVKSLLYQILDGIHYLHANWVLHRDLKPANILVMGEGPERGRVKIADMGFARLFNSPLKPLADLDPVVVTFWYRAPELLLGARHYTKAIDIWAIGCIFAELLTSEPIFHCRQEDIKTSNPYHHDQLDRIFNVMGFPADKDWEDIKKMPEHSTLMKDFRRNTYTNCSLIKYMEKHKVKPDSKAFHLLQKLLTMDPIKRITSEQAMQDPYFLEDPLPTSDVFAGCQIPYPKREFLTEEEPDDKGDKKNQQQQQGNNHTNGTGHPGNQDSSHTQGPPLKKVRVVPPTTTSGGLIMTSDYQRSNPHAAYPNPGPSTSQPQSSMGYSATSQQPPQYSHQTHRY
Chain of Calcium/calmodulin-dependent protein kinase type 1 (Homo sapiens) (Q14012 whole entry, looked up): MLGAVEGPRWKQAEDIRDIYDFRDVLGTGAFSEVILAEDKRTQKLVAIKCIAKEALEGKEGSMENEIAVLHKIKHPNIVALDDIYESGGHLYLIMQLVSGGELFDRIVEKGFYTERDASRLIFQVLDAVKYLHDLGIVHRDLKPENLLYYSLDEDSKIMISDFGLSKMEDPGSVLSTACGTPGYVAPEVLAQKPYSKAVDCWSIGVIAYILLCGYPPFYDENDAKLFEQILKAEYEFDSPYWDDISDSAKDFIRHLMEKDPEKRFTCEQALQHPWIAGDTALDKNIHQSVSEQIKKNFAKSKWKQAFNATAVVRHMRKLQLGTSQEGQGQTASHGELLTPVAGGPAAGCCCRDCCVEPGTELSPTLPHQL
Chain of Ephrin type-B receptor 3 (Homo sapiens) (P54753 whole entry): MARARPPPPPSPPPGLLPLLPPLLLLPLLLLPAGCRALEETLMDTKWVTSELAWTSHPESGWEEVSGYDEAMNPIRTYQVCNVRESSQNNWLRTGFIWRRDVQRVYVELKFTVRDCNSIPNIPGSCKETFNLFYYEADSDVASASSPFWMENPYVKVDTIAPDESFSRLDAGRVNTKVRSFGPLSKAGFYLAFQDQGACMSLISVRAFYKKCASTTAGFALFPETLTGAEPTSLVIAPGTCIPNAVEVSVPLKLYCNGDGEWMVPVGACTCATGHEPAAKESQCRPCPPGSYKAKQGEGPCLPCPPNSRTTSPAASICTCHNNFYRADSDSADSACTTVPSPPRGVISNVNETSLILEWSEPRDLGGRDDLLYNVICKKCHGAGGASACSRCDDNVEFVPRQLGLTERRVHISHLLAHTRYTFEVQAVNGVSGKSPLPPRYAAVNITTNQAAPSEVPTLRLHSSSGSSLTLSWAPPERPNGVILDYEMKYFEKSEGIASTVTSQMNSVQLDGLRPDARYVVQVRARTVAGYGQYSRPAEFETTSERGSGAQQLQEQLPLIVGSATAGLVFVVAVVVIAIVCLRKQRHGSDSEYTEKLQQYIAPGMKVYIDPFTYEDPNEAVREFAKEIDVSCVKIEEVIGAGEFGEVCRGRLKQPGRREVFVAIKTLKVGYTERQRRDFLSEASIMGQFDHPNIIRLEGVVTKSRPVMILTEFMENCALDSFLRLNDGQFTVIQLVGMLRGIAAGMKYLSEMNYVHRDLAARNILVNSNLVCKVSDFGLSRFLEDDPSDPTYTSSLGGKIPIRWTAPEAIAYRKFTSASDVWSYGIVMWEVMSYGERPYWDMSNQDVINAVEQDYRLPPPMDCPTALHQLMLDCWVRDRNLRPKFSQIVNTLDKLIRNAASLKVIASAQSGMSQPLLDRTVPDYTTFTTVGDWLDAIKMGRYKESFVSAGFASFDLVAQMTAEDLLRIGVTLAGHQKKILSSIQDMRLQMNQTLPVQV
Chain of Ephrin type-A receptor 6 (Homo sapiens) (Q9UF33 whole entry): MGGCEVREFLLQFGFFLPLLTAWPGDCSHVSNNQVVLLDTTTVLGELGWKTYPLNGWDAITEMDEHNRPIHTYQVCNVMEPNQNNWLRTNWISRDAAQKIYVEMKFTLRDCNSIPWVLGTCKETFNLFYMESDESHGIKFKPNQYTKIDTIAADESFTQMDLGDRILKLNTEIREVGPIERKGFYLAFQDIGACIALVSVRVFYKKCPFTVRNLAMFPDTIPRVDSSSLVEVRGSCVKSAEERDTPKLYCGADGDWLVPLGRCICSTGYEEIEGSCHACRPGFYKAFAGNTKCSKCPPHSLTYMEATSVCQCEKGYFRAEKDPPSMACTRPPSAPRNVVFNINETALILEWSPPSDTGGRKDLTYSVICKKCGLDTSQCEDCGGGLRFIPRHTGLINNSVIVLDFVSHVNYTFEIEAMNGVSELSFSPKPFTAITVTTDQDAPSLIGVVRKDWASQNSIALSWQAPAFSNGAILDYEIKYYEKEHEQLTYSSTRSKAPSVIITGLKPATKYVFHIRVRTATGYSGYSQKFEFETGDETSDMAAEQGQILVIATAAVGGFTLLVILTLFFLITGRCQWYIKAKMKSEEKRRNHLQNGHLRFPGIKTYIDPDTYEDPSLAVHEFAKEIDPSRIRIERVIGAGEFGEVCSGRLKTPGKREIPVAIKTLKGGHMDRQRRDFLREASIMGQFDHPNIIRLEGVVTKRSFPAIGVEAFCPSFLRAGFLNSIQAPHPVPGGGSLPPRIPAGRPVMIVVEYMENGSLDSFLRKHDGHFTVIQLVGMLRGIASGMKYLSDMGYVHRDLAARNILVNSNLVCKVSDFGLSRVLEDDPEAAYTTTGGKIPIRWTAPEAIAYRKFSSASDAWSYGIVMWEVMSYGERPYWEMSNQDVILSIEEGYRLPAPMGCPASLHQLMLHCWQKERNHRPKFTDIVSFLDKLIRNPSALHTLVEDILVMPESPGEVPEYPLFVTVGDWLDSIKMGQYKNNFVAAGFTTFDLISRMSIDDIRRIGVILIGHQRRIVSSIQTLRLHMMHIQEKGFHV
Chain of Tyrosine-protein kinase ABL1 (Homo sapiens), P00519 [E255K] (P00519 whole entry E255K): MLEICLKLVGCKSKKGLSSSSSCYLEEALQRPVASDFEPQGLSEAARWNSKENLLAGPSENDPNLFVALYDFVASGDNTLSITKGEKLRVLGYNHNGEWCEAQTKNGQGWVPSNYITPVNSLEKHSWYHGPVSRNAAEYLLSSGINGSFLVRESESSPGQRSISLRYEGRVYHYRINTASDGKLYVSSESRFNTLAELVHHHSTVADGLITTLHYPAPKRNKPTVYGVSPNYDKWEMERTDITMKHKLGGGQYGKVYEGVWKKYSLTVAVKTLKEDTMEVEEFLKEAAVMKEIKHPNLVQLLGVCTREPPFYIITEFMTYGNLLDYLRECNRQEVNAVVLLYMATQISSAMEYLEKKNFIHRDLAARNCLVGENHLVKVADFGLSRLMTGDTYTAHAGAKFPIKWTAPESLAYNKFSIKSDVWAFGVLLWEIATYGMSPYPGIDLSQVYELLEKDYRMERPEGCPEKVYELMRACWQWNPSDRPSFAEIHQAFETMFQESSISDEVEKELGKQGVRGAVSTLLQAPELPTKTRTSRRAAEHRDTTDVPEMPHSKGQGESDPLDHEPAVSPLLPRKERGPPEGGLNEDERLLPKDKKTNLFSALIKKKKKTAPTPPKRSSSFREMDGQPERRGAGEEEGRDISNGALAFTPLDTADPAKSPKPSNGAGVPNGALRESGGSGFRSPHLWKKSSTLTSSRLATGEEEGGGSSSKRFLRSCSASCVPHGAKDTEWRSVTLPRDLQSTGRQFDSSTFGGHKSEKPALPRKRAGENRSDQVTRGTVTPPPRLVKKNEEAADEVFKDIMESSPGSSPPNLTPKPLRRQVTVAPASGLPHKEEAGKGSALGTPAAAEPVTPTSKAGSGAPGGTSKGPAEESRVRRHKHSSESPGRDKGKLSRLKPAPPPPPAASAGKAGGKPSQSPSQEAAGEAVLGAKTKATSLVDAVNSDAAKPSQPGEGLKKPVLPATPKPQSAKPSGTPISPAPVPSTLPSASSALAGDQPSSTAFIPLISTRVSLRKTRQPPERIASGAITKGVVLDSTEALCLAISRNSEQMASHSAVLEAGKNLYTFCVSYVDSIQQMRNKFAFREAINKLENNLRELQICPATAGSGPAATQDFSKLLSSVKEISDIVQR
Chain of 5-hydroxytryptamine receptor 2A (Homo sapiens) (P28223 whole entry): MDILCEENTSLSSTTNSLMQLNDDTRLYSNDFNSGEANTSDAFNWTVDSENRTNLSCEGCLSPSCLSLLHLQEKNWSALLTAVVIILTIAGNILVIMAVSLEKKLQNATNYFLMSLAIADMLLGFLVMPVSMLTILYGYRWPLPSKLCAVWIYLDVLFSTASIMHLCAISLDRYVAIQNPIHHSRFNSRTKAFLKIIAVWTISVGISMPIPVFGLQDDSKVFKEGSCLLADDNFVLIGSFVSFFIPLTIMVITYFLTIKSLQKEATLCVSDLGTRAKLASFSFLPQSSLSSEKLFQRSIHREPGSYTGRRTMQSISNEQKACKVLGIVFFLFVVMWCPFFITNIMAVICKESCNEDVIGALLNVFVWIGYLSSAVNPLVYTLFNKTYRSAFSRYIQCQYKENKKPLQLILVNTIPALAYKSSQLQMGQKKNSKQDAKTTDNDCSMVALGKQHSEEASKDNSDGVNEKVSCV
Chain of Tyrosine-protein kinase Srms (Homo sapiens) (Q9H3Y6 whole entry): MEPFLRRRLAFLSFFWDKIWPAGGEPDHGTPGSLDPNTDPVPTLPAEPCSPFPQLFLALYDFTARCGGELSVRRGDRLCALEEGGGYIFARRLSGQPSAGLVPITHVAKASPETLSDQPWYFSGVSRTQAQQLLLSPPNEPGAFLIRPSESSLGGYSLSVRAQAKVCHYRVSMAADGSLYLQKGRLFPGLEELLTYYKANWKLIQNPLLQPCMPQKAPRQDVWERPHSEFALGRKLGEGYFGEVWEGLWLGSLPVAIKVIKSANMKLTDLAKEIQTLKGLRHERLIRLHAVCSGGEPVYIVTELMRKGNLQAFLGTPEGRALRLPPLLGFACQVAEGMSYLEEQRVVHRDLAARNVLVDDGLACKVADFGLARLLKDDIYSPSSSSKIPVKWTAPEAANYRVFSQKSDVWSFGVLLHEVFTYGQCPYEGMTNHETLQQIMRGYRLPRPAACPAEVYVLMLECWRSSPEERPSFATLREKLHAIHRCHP

O=C(O)[C@@H]1[C@@H](Cn2nnc3ccccc3c2=O)CC[C@H]1C(=O)c1ccc(OCCC2CCOCC2)cc1 [BAY-694]
inactive: inhibition [1] 18.4% | residual activity [2] 100% | residual activity [3] 100% | residual activity [4] 97% | residual activity [5] 100% | residual activity [6] 91% | residual activity [7] 100% | residual activity [8] 100% | residual activity [9] 100% | residual activity [10] 92% | residual activity [11] 100% | inhibition [12] 6.4% | residual activity [13] 100% | inhibition [14] 4.06% | residual activity [15] 100% | inhibition [16] 0.08% | residual activity [17] 64% | residual activity [18] 76% | residual activity [19] 100% | residual activity [20] 98% | residual activity [21] 100% | residual activity [22] 89% | residual activity [23] 97% | residual activity [24] 100% | residual activity [25] 84% | residual activity [26] 100% | residual activity [27] 100% | residual activity [28] 89% | residual activity [29] 100% | residual activity [30] 100% | residual activity [31] 97%

O=C(O)[C@H]1[C@H](Cn2nnc3ccccc3c2=O)CC[C@@H]1C(=O)c1ccc(OCCC2CCOCC2)cc1 [BAY-7598]
inactive: inhibition [1] 16.2% | residual activity [2] 100% | residual activity [3] 89% | residual activity [4] 100% | residual activity [5] 100% | residual activity [6] 100% | residual activity [7] 95% | residual activity [8] 100% | residual activity [9] 83% | residual activity [10] 100% | residual activity [11] 89% | inhibition [12] 18% | residual activity [13] 90% | inhibition [14] -2.95% | residual activity [15] 100% | inhibition [16] 0.59% | residual activity [17] 87% | residual activity [18] 100% | residual activity [19] 91% | residual activity [20] 97% | residual activity [21] 86% | residual activity [22] 100% | residual activity [23] 85% | residual activity [24] 73% | residual activity [25] 75% | residual activity [26] 100% | residual activity [27] 84% | residual activity [28] 85% | residual activity [29] 100% | residual activity [30] 90% | residual activity [31] 82%
